Results as given in US10308686B2, “Gamma-AApeptides with potent and broad-spectrum antimicrobial activity” (priority 2012, dated 2019).
Values after ≈ are worked out from the molar mass of the structure shown.

Key:
[1] = system: multi-drug resistant S. epidermidis (RP62A); conditions: for MIC, Gram positive S. epidermidis: Table 7
[2] = system: vancomycin-resistant E. faecalis (ATCC 700802); conditions: for MIC, Gram positive E. faecalis: Table 7
[3] = system: K. pneumoniae (ATCC 13383)
[4] = system: human red blood cells (hRBC's); assay: Hemolysis assay; assay type: cell-based; conditions: for Hemolysis HC10 / Hemolysis HC50: red cells of human
Experimental: Freshly drawn human red blood cells (hRBC's) with additive K2 EDTA (spray-dried) were washed with PBS buffer several times and centrifuged at 1000 g for 10 min until a clear supernatant was observed. The hRBC's were resuspended in 1×PBS to get a 5% v/v suspension. Two-fold serial dilutions of γ-AApeptides dissolved in 1×PBS from 250 μg/ml through 1.6 μg/ml were added to a sterile 96-well plate to make up a total volume of 50 μL in each well. Then 50 μL of 5% v/v hRBC solution was added to make up a total volume of 100 μL in each well. The 0% hemolysis point and 100% hemolysis point were determined in 1×PBS and 0.2% Triton-X-100, respectively (Patch et al., 2003). The plate was then incubated at 37° C. for 1 h and centrifuged at 3500 rpm for 10 min. The supernatant (30 μL) was diluted with 100 μL of 1×PBS and absorption was detected by measuring the optical density at 360 nm by Biotek Synergy HT microtiter plate reader. % hemolysis was determined by the following equation: % hemolysis=(Abssample−AbsPBS)/(AbsTriton−AbsPBS)×100 H50 is the concentration of γ-AApeptide amphiphiles at which 50% hemolysis was observed. The highest concentration tested in the hemolytic assay was 500 μg/ml. 7. Fluorescence Microscopy
The sequences shown in FIG. 12 were also evaluated via hemolytic assays. Freshly drawn human red blood cells (hRBC's) with additive K2 EDTA (spray-dried) were washed with PBS buffer several times and centrifuged at 1000 g for 10 min until a clear supernatant was observed. The hRBC's were resuspended in 1×PBS to get a 5% v/v suspension. Two-fold serial dilutions of lipidated γ-AApeptides dissolved in 1×PBS from 1 mg/ml through 6.3 μg/ml were added to sterile 96-well plates to make up a total volume of 50 μL in each well. Then 50 μL of 5% v/v hRBC solution was added to make up a total volume of 100 μL in each well. The 0% hemolysis point and 100% hemolysis point were determined in 1×PBS and 0.2% Triton-X-100, respectively (Patch et al., 2003). The plate was then incubated at 37° C. for 1 h and centrifuged at 3500 rpm for 10 min. The supernatant (30 μL) was diluted with 100 μL of 1×PBS and absorption was detected by measuring the optical density at 360 nm with a Biotek Synergy HT microtiter plate reader. % hemolysis was determined by the following equation: % hemolysis=(Abs sample−Abs PBS)/(Abs Triton−Abs PBS)×100

[5] = system: methicillin-resistant S. aureus (ATCC 33592); conditions: for MIC, Gram positive S. aureus: Table 7
[6] = system: multi-drug resistant P. aeruginosa ATCC 27853; conditions: ATCC 27853
C. albicans (ATCC 10231) = conditions: ATCC 10231

CCCCCCCCCCCCCCCC(=O)N[C@@H](CCCCN)CN(CC(=O)N[C@@H](CCCCN)CN(CC(N)=O)C(=O)CCCN)C(=O)CCCN [Sequence 3]
MIC, Gram positive S. epidermidis [1]: 2.5 µg/mL (≈ 3.25 µM) | MIC, Gram positive B. subtilis (B. subtilis (BR151)): 1.5 µg/mL (≈ 1.95 µM) | MIC, Gram positive E. faecalis [2]: 8 µg/mL (≈ 10.4 µM) | MIC, Gram negative K. pneumoniae [3]: 20 µg/mL (≈ 26 µM) | Hemolysis HC10 [4]: 40 µg/mL | Hemolysis HC50 [4]: 300 µg/mL | MIC, Gram positive S. aureus [5]: 5 µg/mL (≈ 6.51 µM) | MIC, Gram negative P. aeruginosa [6]: 20 µg/mL (≈ 26 µM) | MIC, Gram negative E. coli (E. coli (JM109)): 30 µg/mL (≈ 39.1 µM) | MIC, Fungi, C. albicans (C. albicans (ATCC 10231)): 2 µg/mL (≈ 2.6 µM)

CCCCCCCC/C=C\CCCCCCCC(=O)N[C@@H](CCCCN)CN(CC(=O)N[C@@H](CCCCN)CN(CC(N)=O)C(=O)CCCN)C(=O)CCCN [Sequence 12]
MIC, Gram positive S. epidermidis [1]: 4 µg/mL (≈ 5.04 µM) | MIC, Gram positive B. subtilis (B. subtilis (BR151)): 2.5 µg/mL (≈ 3.15 µM) | MIC, Gram positive E. faecalis [2]: 5 µg/mL (≈ 6.3 µM) | MIC, Gram negative K. pneumoniae [3]: 15 µg/mL (≈ 18.9 µM) | Hemolysis HC10 [4]: 250 µg/mL | Hemolysis HC50 [4]: > 500 µg/mL | MIC, Gram positive S. aureus [5]: 5 µg/mL (≈ 6.3 µM) | MIC, Gram negative P. aeruginosa [6]: 3 µg/mL (≈ 3.78 µM) | MIC, Gram negative E. coli (E. coli (JM109)): 10 µg/mL (≈ 12.6 µM) | MIC, Fungi, C. albicans (C. albicans (ATCC 10231)): 2 µg/mL (≈ 2.52 µM)

CCCCCCCCCCCCCCCC(=O)N[C@@H](C)CN(CC(=O)N[C@@H](C)CN(CC(=O)N[C@@H](CCCCN)CN(CC(=O)N[C@@H](CCCCN)CN(CC(=O)N[C@@H](CCCCN)CN(CC(N)=O)C(=O)CCCN)C(=O)CCCN)C(=O)CCCN)C(C)=O)C(C)=O [Sequence 5]
MIC, Gram positive S. epidermidis [1]: 10 µg/mL (≈ 7.48 µM) | MIC, Gram positive B. subtilis (B. subtilis (BR151)): 2.5 µg/mL (≈ 1.87 µM) | MIC, Gram positive E. faecalis [2]: 10 µg/mL (≈ 7.48 µM) | MIC, Gram negative K. pneumoniae [3]: 15 µg/mL (≈ 11.2 µM) | Hemolysis HC10 [4]: 200 µg/mL | Hemolysis HC50 [4]: > 500 µg/mL | MIC, Gram positive S. aureus [5]: 10 µg/mL (≈ 7.48 µM) | MIC, Gram negative P. aeruginosa [6]: 15 µg/mL (≈ 11.2 µM) | MIC, Gram negative E. coli (E. coli (JM109)): 2.5 µg/mL (≈ 1.87 µM) | MIC, Fungi, C. albicans (C. albicans (ATCC 10231)): 7.5 µg/mL (≈ 5.61 µM)

CC(C)CCC(=O)N1CC(=O)N[C@@H](Cc2ccccc2)CN(C(=O)CCC(C)C)CC(=O)N[C@@H](CCCCN)CN(C(=O)CCc2ccccc2)CC(=O)N[C@@H](CCCCN)CN(C(=O)CCc2ccccc2)CC(=O)N[C@@H](CCCCN)CN(C(=O)CCc2ccccc2)CC(=O)N[C@@H](CCCCN)CN(C(=O)CCc2ccccc2)CC(=O)N[C@@H](Cc2ccccc2)CN(CC(N)=O)C(=O)CCC(=O)N[C@@H](Cc2ccccc2)C1 [γAA5]
MIC, S. epidermidis (multi-drug resistant) ([1]; Table 3): 2 µg/mL (≈ 0.962 µM) | MIC, B. subtilis (B. subtilis (BR151)): 1 µg/mL (≈ 0.481 µM) | MIC, E. faecalis (vancomycin-resistant) ([2]; Table 3): 5 µg/mL (≈ 2.4 µM) | MIC, K. pneumoniae (causing pneumonia) [3]: 8 µg/mL (≈ 3.85 µM) | Hemolysis (H50) [4]: 100 µg/mL | MIC, S. aureus (methicillin-resistant) ([5]; Table 3): 1 µg/mL (≈ 0.481 µM) | MIC, P. aeruginosa [6]: 8 µg/mL (≈ 3.85 µM) | MIC, E. coli (E. coli (JM109)): 12.5 to 25 µg/mL | MIC, Fungi C. albicans (C. albicans (ATCC 10231)): 2 µg/mL (≈ 0.962 µM)

CCCCCCCCCCCCCCCC(=O)N[C@@H](CCCCN)CN(CC(=O)N[C@@H](CCCCN)CN(CC(=O)N[C@@H](CCCCN)CN(CC(N)=O)C(=O)CCCN)C(=O)CCCN)C(=O)CCCN [Sequence 4]
MIC, Gram positive S. epidermidis [1]: 2 µg/mL (≈ 1.95 µM) | MIC, Gram positive B. subtilis (B. subtilis (BR151)): 1.5 µg/mL (≈ 1.46 µM) | MIC, Gram positive E. faecalis [2]: 10 µg/mL (≈ 9.76 µM) | MIC, Gram negative K. pneumoniae [3]: >50 µg/mL | Hemolysis HC10 [4]: 300 µg/mL | Hemolysis HC50 [4]: > 500 µg/mL | MIC, Gram positive S. aureus [5]: 5 µg/mL (≈ 4.88 µM) | MIC, Gram negative P. aeruginosa [6]: 15 µg/mL (≈ 14.6 µM) | MIC, Gram negative E. coli (E. coli (JM109)): 20 µg/mL (≈ 19.5 µM) | MIC, Fungi, C. albicans (C. albicans (ATCC 10231)): 2 µg/mL (≈ 1.95 µM)

CCCCCCCCCCCCCCCC(=O)N[C@@H](C)CN(CC(=O)N[C@@H](C)CN(CC(=O)N[C@@H](CCC(=O)O)CN(CC(=O)N[C@@H](CCC(=O)O)CN(CC(=O)N[C@@H](CCC(=O)O)CN(CC(N)=O)C(=O)CC(=O)O)C(=O)CC(=O)O)C(=O)CC(=O)O)C(C)=O)C(C)=O [Sequence 7]
MIC, Gram positive S. epidermidis [1]: >100 µg/mL | MIC, Gram positive B. subtilis (B. subtilis (BR151)): >100 µg/mL | MIC, Gram positive E. faecalis [2]: >100 µg/mL | MIC, Gram negative K. pneumoniae [3]: >100 µg/mL | Hemolysis HC10 [4]: 250 µg/mL | Hemolysis HC50 [4]: > 500 µg/mL | MIC, Gram positive S. aureus [5]: >100 µg/mL | MIC, Gram negative P. aeruginosa [6]: >100 µg/mL | MIC, Gram negative E. coli (E. coli (JM109)): >100 µg/mL | MIC, Fungi, C. albicans (C. albicans (ATCC 10231)): >100 µg/mL
